Assay results from paper PMC11859040 (Pharmaceuticals, 2025).
In brackets after ≈: the same amount, converted by molar mass.

Assays:
ARPE-19 cells [1] = test: Cell viability in HQ-induced oxidative stress (MTT); type: cell-based, human; conditions: ARPE-19, 600 μM HQ
Procedure: (§1) […] Cells were rinsed once using an FBS-free medium to remove any residual CUR-SNEDDS. Afterward, the oxidative stress-provoking agent, HQ (Sigma-Aldrich), was added. The cells were exposed to 600 μM HQ for 2 h to achieve 60–70% viability, as determined in the control samples [44]. Cell viability was assessed using the MTT assay. Cells were assessed with microscopy before the viability test to confirm the correlation of the absorbance readings from the MTT assay.

ARPE-19 cells [2] = test: Cytocompatibility, MTT assay, ARPE-19 cells; type: cell-based, human; conditions: 5 μM CUR, 3 h, vs control
Procedure: The ARPE-19 cell line obtained from the American Type Culture Collection (ATCC, Manassas, VA, USA) was used in the study. Cells were cultured in Dulbecco’s modified eagle medium/nutrition mix F-12 (1:1; Gibco, Paisley, UK) supplemented with 10% fetal bovine serum (FBS; Hyclone, Logan, UT, USA), 100 U/mL penicillin (Lonza, Walkersville, MD), and 2 mM L-glutamine (Lonza, Walkersville, MD, USA). The cells were grown at 37 °C in a humidified 5% CO2 atmosphere. The experiments were performed 24 h after seeding using an FBS-free medium. […] The cells were exposed for 3 h before the cell viability tests. Cell viability was assessed using the MTT assay. Cells were assessed with microscopy before the viability test to confirm the correlation of the absorbance readings from the MTT assay.

cell proliferation = conditions: cited from earlier work
[3] = Solubility of CUR in water (inherent vs apparent with SNEDDS); type: physicochemical
ARPE-19 cells [4] = test: Indirect quantification of CUR uptake (CUR recovered in medium); type: cell-based, human
Procedure: ARPE-19 cells were seeded on acid-etched coverslips placed into a 6-well plate with a seeding density of 850,000 cells/well and incubated at 37 °C for 24 h. The cells were then incubated with media containing AC at the same concentration that was used for the cytotoxicity experiment. After 3 h of exposure to the AC and C formulations, the coverslips were removed, washed twice with PBS, and fixed with 4% paraformaldehyde (PFA) for 15 min. Subsequently, the PFA was removed, followed by two washes with PBS. […] Cell imaging was conducted using a ZEISS Axio Imager M2 fluorescent microscope (Carl Zeiss Microscopy Deutschland GmbH, Oberkochen, Germany). […] The experiments were conducted 24 h after seeding, using an FBS-free medium. The cells were rinsed once with a serum-free medium to remove the FBS residues and then exposed to 0.1–2 μM concentrations of SNEDD-CUR diluted in a medium. After a 3 h exposure period, the medium was removed and collected into another 96-well plate.

HCE cells = test: Cytocompatibility, MTT assay, HCE cells; type: cell-based, human; conditions: 5 μM CUR, 3 h, vs control
Procedure: HCE cells were cultured at 37 °C and 5% CO2 using a growth medium consisting of 1:1 DMEM/F12 (Gibco by Life Technologies Limited, Paisley, UK), 15% FBS (fetal bovine serum; Gibco by Life Technologies Limited, Paisley, UK), 100 U/mL penicillin, 0.1 mg/mL streptomycin (penicillin/streptomycin solution from EuroClone spa, Pero, Italy), 0.3 mg/mL L-glutamine (EuroClone spa, Pero, Italy), 10 ng/mL EGF (Recombinant Human Epidermal Growth Factor; Gibco by Life Technologies Corporation, Carlsbad, CA, USA), 5 μg/mL human recombinant insulin (Gibco by Life Technologies Corporation, Grand Island, NY, USA), and 0.5% sterile filtrated DMSO (Sigma-Aldrich, St. Louis, MO, USA), 0.1 μg/mL cholera toxin (Sigma-Aldrich, St. Louis, MO, USA). The fresh growth medium was changed for the cells every 2–3 days. When reaching a 75–80% confluence, the cells were either subcultured 1:5–1:30 or seeded for the experiment. Upon confluence, the cells were washed with 1xDPBS (Gibco by Life Technologies Limited, Paisley, UK) and detached with 0.05% trypsin–EDTA (Gibco by Life Technologies Limited, Paisley, UK). […] Cell viability was assessed using the 3-(4,5-dimethyl-thiazol-2-yl)-2,5-diphenyltetrazolium bromide (MTT) assay. Cells were assessed with microscopy before the viability test to confirm the correlation of the absorbance readings from the MTT assay.

[5] = Stability of CUR in PBS and in SNEDDS under storage conditions; type: physicochemical; conditions: PBS, 6 h
Procedure: HPLC analysis was performed on a reversed-phase C18 column (4.6 mm × 150 mm, 5 μm, ZORBAX Eclipse SB-C18) at 25 °C. The mobile phase was composed of water with 4% acetic acid and acetonitrile (44:56, v/v), filtered through a 0.22 μm Milli-pore filter and degassed prior to use. The flow rate was 0.850 mL/min, and the eluent was detected by a DAD detector at 430 nm.
The preparation of the sample AC followed the procedure described in Section 4.3. The sample was divided into four glass vials, with each set of vials being stored under different conditions, namely at 4 °C dark, 25 °C dark, 25 °C light, and 40 °C dark, to assess the typical storage conditions and investigate possible protection from degradation phenomena. Sample C was prepared differently. […] The mixture was then subjected to magnetic stirring at 350 rpm for 20 min. After stirring, the tube was centrifuged at 13,000 rpm for 20 min at 25 °C. The supernatant was collected and divided into four glass vials, each representing a different storage condition compared to the AC sample. […] HPLC analysis was employed to detect any variations in absorbance.

[6] = CUR solubility in different vehicles (oils and surfactants); type: physicochemical; conditions: for solubility at 24 h: 25 °C, thermodynamic from solid
Procedure: Different types of oils were selected based on biocompatibility and biodegradability: Mygliol® 812, Capryol® PGMC and Capryol® 90, Tegin® O, Isopropylmyristate (IPM), and Castor oil. Five surfactants, including Tween® 20, Tween® 80, Cremophor EL®, Solutol ®HS15, and Transcutol® P, were selected for the experiment in order to investigate the best materials for CUR-SNEDDS preparation. […] The mixtures were stirred (350 rpm) using a magnetic stirrer for 24 h. The samples were covered in order to prevent photo-degradation. […] The absorbance reading occurred at 422 nm.

[7] = Cell viability in HQ-induced oxidative stress (MTT); type: cell-based, human; conditions: human, ARPE-19 cells; ARPE-19, 600 μM HQ alone
Procedure: as §1

| SMILES | Effect on cell viability compared to cells exposed to HQ (ARPE-19 cells [1]) | Reduction in cell viability (ARPE-19 cells [2]) | IC50 (cell proliferation; anticancer agent and cell proliferation blocker) | Concentrations at which CUR acts as anticancer agent and cell proliferation blocker (cell proliferation) | solubility [3] | CUR recovered in the medium (not internalized) (ARPE-19 cells [4]; ARPE-19, 3 h, listed as free CUR) | CUR internalized (ARPE-19 cells [4]; ARPE-19, concentration not stated (discussion)) | CUR internalized inside the cells (ARPE-19 cells [4]; ARPE-19, higher concentrations such as 1 μM and 2 μM, 3 h) | Reduction in cell viability (HCE cells) | CUR remaining / recovered ([5]; 4 °C) | CUR remaining / recovered ([5]; 25 °C (r.t.) dark) | CUR remaining / recovered ([5]; 25 °C (r.t.) dark, listed as Native CUR) | CUR remaining / recovered ([5]; 25 °C light) | CUR remaining / recovered ([5]; 40 °C dark) | solubility at 24 h ([6]; aqueous with cosolvent or surfactant or cyclodextrin, in Tween 80) | solubility at 24 h ([6]; oil or lipid, in Capryol 90) | solubility at 24 h ([6]; organic solvent or mixture, in Transcutol P) | Solubility of CUR ([6]; in Capryol PGMC) | viability at 2 h, 600 μM [7] |
| --- | --- | --- | --- | --- | --- | --- | --- | --- | --- | --- | --- | --- | --- | --- | --- | --- | --- | --- | --- |
| COc1cc(/C=C/C(=O)CC(=O)/C=C/c2ccc(O)c(OC)c2)ccc1O [CUR, Curcumin] | no significant difference | not observed | ~10 µM | 5 to 10 µM | < 1 µg/mL | 100% | 0% | 1% | not observed | 57% | less than 10% | 9% | completely degraded | completely degraded | 6800 µg/mL (≈ 18.5 mM) | 8360 µg/mL (≈ 22.7 mM) | 4610 µg/mL (≈ 12.5 mM) | 8000 µg/mL | – |
| Oc1ccc(O)cc1 [HQ, hydroquinone] | – | – | – | – | – | – | – | – | – | – | – | – | – | – | – | – | – | – | 70% |
